Experimental data published in patent US20240335462A1, “SULFUR/PHOSPHORUS-CONTAINING ARYL COMPOUND AND APPLICATION THEREOF” (MEDSHINE DISCOVERY INC., priority 2021, published 2024).

Test system: IL-12/IL-18-induced IFN-γ secretion by mouse immune cells
Test: IL-12/IL-18-induced IFN-γ secretion in mice (serum ELISA)
Assay type: in vivo, C57BL/6J mice
Protocol: The purpose of this experiment was to evaluate the inhibitory effect of the compound on IL-12/IL-18-induced IFN-γ secretion by immune cells in mice. The IFN-γ protein level in serum samples of mice treated with the compound was detected using the enzyme-linked immunosorbent assay (ELISA) method.
This experiment was conducted twice.
The compounds were all prepared into a clear solution with 10% DMSO+10% solutol+80% (10% HP-β-CD) as a solvent for PO (oral gavage) administration. The frequency of administration was once daily (QD).
• a) According to the grouping, the mice were administered by gavage (P0) with either the compound formulation or solvent control. • b) One hour later, each mouse received an intraperitoneal injection of IL-12 (0.01 μg per mouse) or PBS buffer. • c) One hour after IL-12 administration, each mouse received an intraperitoneal injection of IL-18 (1 μg per mouse) or PBS buffer. • d) Blood was collected three hours after IL-18 administration, and serum was separated.
• a) Prior to use, all reagents were mixed thoroughly to avoid foaming. • b) The number of strips required was determined based on the number of experimental wells (blanks and standards). Duplicate tests were performed for samples (including standards) and blanks. • c) Sample addition: 100 μL/well of the diluted Cytokine standard was added to the standard wells, 100 μL/well of the sample was added to the sample wells, and 100 μL/well of Dilution buffer R (1×) was added to the blank control wells. • d) Detection antibody addition: 50 μL/well of Biotinylated antibody working solution was added. After mixing, the plate was covered with a sealing film and incubated at 37° C. for 90 minutes. • e) Plate washing: The liquid was discarded from the wells, then 300 μL/well of 1× Washing buffer working solution was added, and allowed to stand for 1 minute before the liquid was discarded from the wells. […]
The plate was covered with a sealing film and incubated at 37° C. for 30 minutes. • g) Plate washing: Step 5 was repeated. • h) Color development: 100 μL/well of TMB was added, then the plate was incubated at 37° C. in the dark for 5 to 30 minutes, and the reaction was terminated depending on the intensity of the color (dark blue) in the well. […] Dual wavelengths were recommended for reading the plate, specifically measuring at a measurement wavelength of 450 nm and a reference wavelength of 610 to 630 nm simultaneously.
The expression level of each sample was calculated based on the standard curve, and statistical analysis of the results for each group was performed, including mean and standard error of the mean (SEM). […] All data were analyzed using GraphPad Prism 6.02.

[1] = single PO administration 3 mg/kg
[2] = single PO administration 10 mg/kg

SMILES: CNC(=O)c1nnc(NC(=O)C2CC2)cc1Nc1cccc(-c2ncc(S(=N)(=O)C(C)C)cn2)c1OC (single isomer, unassigned) [WX-011A]
- Serum IFN-γ inhibition rate (%) [1]: 64%
- Serum IFN-γ inhibition rate (%) [2]: 96%

SMILES: CNC(=O)c1cnc(NC(=O)C2CC2)cc1Nc1cccc(-c2ccc(S(=O)(=O)C(C)C)cn2)c1OC [WX-020]
- Serum IFN-γ inhibition rate (%) [1]: 40%
- Serum IFN-γ inhibition rate (%) [2]: 86%
